Results: patent US6447748B1, “Benzamide compounds for cancer imaging and therapy” (Research Corporation Technologies, Inc., priority 1993, dated 2002)

Columns and labels:
[1] = test system: MCF-7 breast cancer cells; set-up: species or system human; details: read-out: Kd, saturable binding
Source text: The cells were adherent and split weekly in a 1:20 ratio using trypsin/EDTA (GIBCO).

[2] = test system: sites labeled by 4-[125I]PEMP in MCF-7 breast tumor cells
Procedure: (§1) Intact adherent cells were washed (2×1 mL) with 10 mM phosphate buffer (pH=7.2). […] Each data point represent an average of three values. The cells were incubated at 37° C. for 1 hr. and subsequently washed with phosphate buffer (10 mM; pH 7.2) (3×1 mL). The cells were then dissolved in 0.2 N NaOH (1.0 mL) and the activity counted on a Beckman (DP 5500) Gamma Counter. A similar procedure was repeated with 2-[^125I]BP with MCF-7, MDA-MB 231 and T47D breast cancer cells.
(§2) The affinity of compounds for sites labeled by 4-[^125I]PEMP was determined by homologous and heterologous in vitro competitive binding assays in intact MCF-7 breast cancer cells and guinea pig brain membranes labeled by 4-[^125I]PEMP. The assays were prepared according to the procedure described in Example 14.

[3] = target: sigma sites labeled by 4-[125I]PEMP in guinea pig brain membranes; format: binding; details: read-out: Ki against 4-[125I]PEMP
Procedure: as §1, §2

[4] = target: T1, Sigma-2 (Rattus norvegicus, UniProt Q5U3Y7); test: Sigma-2 binding assay, rat liver membranes, [3H]DTG + dextrallorphan (Example 8); details: read-out: Ki Sigma-2 Rat Liver; 3 nM [3H]DTG, 1 micromolar dextrallorphan
T1 sequence (Q5U3Y7 1-176): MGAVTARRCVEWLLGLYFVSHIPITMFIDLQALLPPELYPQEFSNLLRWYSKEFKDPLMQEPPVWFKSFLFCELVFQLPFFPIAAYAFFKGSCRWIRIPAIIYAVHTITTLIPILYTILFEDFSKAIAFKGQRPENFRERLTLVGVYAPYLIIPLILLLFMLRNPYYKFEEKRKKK
Procedure: (§4) A crude P2 membrane fraction was also prepared from the livers of rat Sprague-Dawley rats (150-220 g, Taconic Farms) liver. The animals were decapitated and their livers were minced and homogenized. The tissue homogenization was carried out at 4° C. in ml/g tissue weight of 10 mM Tris-HCl/0.32 M sucrose, pH=7.4 using 10 motor-driven strokes in a Potter-Elvehjem Teflon glass homogenizer. The crude homogenate was centrifuged for 10 min at 1000 g and the crude nuclear (P1) pellet was discarded. Supernatants were centrifuged at 31000 g for 15 min to yield a plasma membrane-mitochondrial pellet (P2). This pellet was resuspended in 3 ml/g in 10 mM tris-HCl, pH 7.4 and used for binding studies. Protein concentrations were determined by the method of Lowry.
(§5) Filters were washed twice with ice-cold buffer. Prior to use, filters were soaked in 0.5% polyethyleneimine for about 30 min at 25° C.
(§6) When the assay was terminated, the membranes were filtered and the filtrate washed twice as above. The radioactivity was counted in Ecoscint (National Diagnostics, Manville, N.J.) after an overnight extraction of counts.
(§7) Ki values were calculated from the IC50 values using Cheng-Prusoff equation.

[5] = test system: A2058 human malignant melanoma cells; test: In vitro competitive binding of nonradioactive IPAB against [125I]PAB in A2058 cells; details: 37° C. for 5 hr., read-out: Ki, nonradioactive IPAB inhibiting binding of radioactive IPAB
Procedure: These cells were grown in DMEM2 medium (Dulbecco's modification of Eagle's medium, EMEM) supplemented with 10% fetal bovine serum and 0.03% L-glutamine.
A2058 cells, grown as described above, were harvested with calcium and magnesium free phosphate buffer (0.1 M) containing 0.02% EDTA. Cells were washed twice with ice-cold RPMI 1640 medium (Gibco) without glutamine and resuspended in the same medium. Carrier-free [^125I]PAB (0.1 ml) was added to eight aliquots of 0.1 ml test A2058 cells (1.5×10^6 cells in suspension). To observe competitive binding by non-radioactive IPAB, varying concentrations of non-radioactive IPAB were added in a volume of 0.1 ml. Cells were incubated at 37° C. for 5 hr. after addition of radioactive and nonradioactive IPAB.
After incubation, cells were collected by centrifugation for 5 min and washed twice with RPMI 1640 medium. The radioactivity bound to cells was counted using a Packard Autogamma 5650 scintillation counter.
Data were analyzed with an INPLOT® iterative, non-linear least square curve fitting program.

[6] = target: Sigma-1 (Cavia porcellus, UniProt Q60492); test: Sigma-1 binding assay, guinea pig brain membranes, [3H]-(+)-pentazocine (Example 8); details: read-out: Ki Sigma-1 Guinea Pig Brain; 3 nM [3H]-(+)-pentazocine, 60 min at 37° C.
Sequence of Sigma-1 (Q60492 whole entry): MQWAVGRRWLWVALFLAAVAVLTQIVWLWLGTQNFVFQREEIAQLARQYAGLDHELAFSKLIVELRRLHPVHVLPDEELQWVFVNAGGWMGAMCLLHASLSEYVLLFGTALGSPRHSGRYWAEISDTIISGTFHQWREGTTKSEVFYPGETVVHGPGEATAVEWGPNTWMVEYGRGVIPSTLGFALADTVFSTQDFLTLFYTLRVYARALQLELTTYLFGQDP
Procedure: as §4, §5, §6, §7

[7] = target: T2, Sigma-2, rat C6 glioma cells (Rattus norvegicus, UniProt Q5U3Y7); test: Sigma-2 binding assay, C6 glioma cell homogenates, [3H]DTG + dextrallorphan (Example 8); details: read-out: Ki Sigma-2 C6 Glioma Cells; 3 nM [3H]DTG, 1 micromolar dextrallorphan
T2 sequence (Q5U3Y7 1-176): T1 sequence (Q5U3Y7 1-176)
Procedure: as §5, §6, §7

[8] = test system: human adenocarcinoma xenograft (NCI-838); test: Scintigraphic imaging of nude mouse bearing human lung adenocarcinoma xenograft; format: in vivo, Balb/c nu/nu mice; details: 24 and 30 hrs. post-injection
Procedure: (§3) A2058 cells, derived from a brain metastasis of human malignant melanoma (Todaro et al. 1980 Proc. Natl. Acad. Sci. USA 77: 5258) were obtained from the National Institutes of Health. A human lung adenocarcinoma cell line, NCI-838, was obtained from the National Cancer Institute. These cells were grown in DMEM2 medium (Dulbecco's modification of Eagle's medium, […]) supplemented with 10% fetal bovine serum and 0.03% L-glutamine.
Balb/c nu/nu mice (17-22 g) bearing human melanoma or non-small cell lung carcinoma xenograft tumors were injected intravenously with 0.2 ml of saline solution containing [^131I]PAB or [^131I]DAB (150-200 μCi). The animals were anesthetized with ketamine containing rompun before the imaging studies. […]

[9] = test system: human melanoma xenograft tumors (A2058); test: Scintigraphic imaging of nude mice bearing human melanoma xenografts; format: in vivo, Balb/c nu/nu mice
Procedure: as §3
Balb/c nu/nu mice (17-22 g) bearing human melanoma or non-small cell lung carcinoma xenograft tumors were injected intravenously with 0.2 ml of saline solution containing [^131I]PAB or [^131I]DAB (150-200 μCi). The animals were anesthetized with ketamine containing rompun before the imaging studies. The images were obtained using a scintigraphic camera with a pin-hole collimator at 6 and 24 hr. post injection.

In the case of `O=C(NC1CCN(Cc2ccccc2)CC1)c1ccc(I)cc1` [4-[^125I]BP, ^125I-(N-Benzylpiperidin-4-yl)-4-iodobenzamide], the Kd [1] is reported as 26 nM.

With `CN(CCc1ccc(Cl)c(Cl)c1)CCN1CCCC1` [BD1008] the “inhibition of specific binding of 4-[125I]PEMP” value [2] was “high affinity, concentration-dependent inhibition of specific binding” and the Ki [3] was 5.6 nM.

`O=C(NCCN1CCCCC1)c1ccc(I)cc1` [IPAB, (2-Piperidinylaminoethyl)4-iodobenzamide] showed a Ki [4] of 24 nM, a Ki [5] of 6.8 nM and a Ki [6] of 0.89 nM. It also gave a Ki [7] of 130 nM.

For “^131I(2-Piperidinylaminoethyl)4-iodobenzamide [[^131I]PAB]”, the “visualization of implanted tumor, scintigraphic image” value [8] was “easily visualized the implanted tumor”, the “detection in the tumor, scintigraphic image” value ([9]; 6 and 24 hrs. post injection) was “detected only within the tumor” and the “uptake in the liver, scintigraphic image” value ([9]; 6 and 24 hrs. post-administration) was “Little or no”.
